Measured values reported in patent publication US20250263416A1, “SPPL2a INHIBITORS” (Incyte Corporation, priority 2024, published 2025).
“Also recorded” adds a separate entry of the source.

Columns and labels:
[1] = In vivo epimerization and PK, statements covering all three preclinical models; parameters: species or system Sprague Dawley rats, beagle dogs, cynomolgus monkeys; conditions: for retention of deuterium in the process of epimerization: all species studied; for in vivo epimerization at the chiral carbon in the 7-membered ring: rat, monkey and dog models, PO; for exposures and PK (other than epimerization) across species: rats, monkeys, dogs
Method: These factors may lead to accumulation and potenial toxicity. The effect on epimerization by substitution at the chiral carbon was tested by comparing Example A, Example 1, and Example 29 in the following preclinical in vivo pharmacokinetic models: Sprague Dawley rats, beagle dogs, and cynomolgus monkeys.
Two groups of male Sprague Dawley rats (n=3 each) received either a single 10 mg/kg PO dose of Example A or Example 1 in a vehicle consisting of 0.5% methylcellulose in water. Blood samples were collected at 0.25, 0.5, 1, 2, 4, and 6 hours postdose.
Male Sprague Dawley rats (n=3 each) received a single 3 mg/kg PO dose of Example 29 in a vehicle consisting of 5% dimethylacetamide (DMAC) in 50 mM citrate buffer w/0.5% methylcellulose. Blood samples were collected at predose, 0.25, 0.5, 1, 2, 4, 6, 8, 12, and 24 hours postdose.
(§1) Three groups of male cynomolgus monkeys (n=2 each) received either a single 3 mg/kg PO dose of Example A, Example 1, or Example 29 in a vehicle consisting of 5% dimethylacetamide (DMAC) in 50 mM citrate buffer w/0.5% methylcellulose. Blood samples were collected at predose, 0.25, 0.5, 1, 2, 3, 4, 6, 8, 12, and 24 hours postdose.
as §1, with “beagle dogs” for “cynomolgus monkeys”, “12, 24” for “12,”, “48” for “24”
All blood samples were collected using EDTA as the anticoagulant and centrifuged to obtain plasma. Plasma concentrations of Example A, Example 1, and their respective diastereomers were determined under non-GLP conditions using standard reverse phase LC-MS/MS bioanalytical methods. The individual plasma concentration-time data was used to determine the area under the curve (AUC) values using GraphPad Prism (v9.3.1).

human SPPL2a [2] = molecular target: T1, human SPPL2a (Homo sapiens, UniProt Q8TCT8); experiment: Western blot assay of TNFα-GFP cleavage in U2OS cells expressing human SPPL2a; format: cell-based; conditions: SPPL2a-U2OS reporter cells, 24 h
T1 construct: expressed in transfected cells; host or cells: U2OS (SPPL2a reporter cell line)
T1 sequence (Q8TCT8 26-520): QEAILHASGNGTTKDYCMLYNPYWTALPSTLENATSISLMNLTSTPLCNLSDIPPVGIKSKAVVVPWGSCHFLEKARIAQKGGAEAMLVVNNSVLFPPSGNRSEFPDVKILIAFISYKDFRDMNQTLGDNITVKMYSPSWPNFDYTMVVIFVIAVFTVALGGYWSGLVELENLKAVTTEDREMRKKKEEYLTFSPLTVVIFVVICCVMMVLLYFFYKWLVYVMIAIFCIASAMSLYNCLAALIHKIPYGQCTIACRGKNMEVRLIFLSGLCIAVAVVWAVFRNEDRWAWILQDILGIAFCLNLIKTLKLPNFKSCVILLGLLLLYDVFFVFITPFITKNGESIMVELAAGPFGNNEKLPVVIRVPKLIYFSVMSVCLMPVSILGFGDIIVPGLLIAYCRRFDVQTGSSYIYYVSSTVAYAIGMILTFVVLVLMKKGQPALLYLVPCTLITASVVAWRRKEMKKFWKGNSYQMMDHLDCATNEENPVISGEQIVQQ
Method: To confirm the cleavage of TNF-α in the U2OS cells that express human SPPL2a, a western blot assay was performed. The same cell line used for the imaging assays were used; these cells express human SPPL2a constitutively and an eGFP-labelled TNFα (aa 1-76) NTF substrate under a doxycycline promotor. In the presence of SPPL2a activity, TNFα-GFP is cleaved at the NTF, resulting in a single 54-56 kDa band (lower MW). If SPPL2a activity is inhibited, TNFα GFP processing is abrogated resulting in a higher molecular weight band (60-62 kDa; complete inhibition) and or both 54-56 kDa and 60-62 kDa bands (incomplete inhibition, smeared appearance) on the blot. Both Example 1 and Example A were added at indicated concentrations, and cells were incubated for 24 h with the inhibitors. Total cell lysated were prepared in ice cold-1X RIPA buffer containing protease inhibitor cocktail (AKR-190, Cell BioLabs). Lysates were collected and quantified for the total protein on NanoDrop using BCA kit (23227, Thermo Scientific). […] To detect cleaved and un-cleaved TNFα-GFP fragments, anti-GFP antibody (AF4240, R&D Biosystems) was used as a primary antibody and detected using anti-goat detection module (DM-006, ProteinSimple) according to the manufacturer's protocol. Data was analyzed using ProteinSimple compass software.

[3] = test system: Imiquimod (IMQ)-induced psoriasis mouse model; experiment: Imiquimod (IMQ)-induced psoriasis mouse model; format: in vivo, BALB/c female mice; conditions: 15 mg/kg PO BID
Method: A comparative study was performed to evaluate the efficacy of the deuterated-inhibitor Example 1 to Example A in the mouse model of psoriasis. Briefly, BALB/c female mice (7-8 week age) were shaved on the dorsal skin and 62.5 mg of IMQ cream was applied daily until day 9. Simultaneously, 15 mg of IMQ cream was applied on one ear daily until day 9. Example 1 and Example A were given orally (PO) at 15 mg/kg, BID. Mice were monitored and clinical signs of psoriasis were recorded (PSI score), both on the dorsal skin (erythema, scaling & thickness) and on the IMQ-applied ear (thickness). All data is presented as mean+SEM. For comparison of more than two groups, ANOVA was used. Pearson product moment correlation was used to test for correlations. All statistical analysis was performed using GraphPad Prism™ 10.

human SPPL2a [4] = molecular target: T1, human SPPL2a; experiment: Nuclear translocation imaging assay for human SPPL2a (SPPL2a reporter U2OS cell line); format: cell-based; conditions: U2OS reporter cells, 24 h incubation
Method: The nuclear translocation imaging assays for human SPPL2a were performed using an SPPL2a reporter U2OS cell line as previously described (Velcicky et al 2018, Zhang et al 2017). These cells stably express human SPPL2a and a doxycycline inducible eGFP TNFα (aa 1-76) NTF fusion protein (SPPL2a substrate). Both Example 1 and Example A were added at indicated concentrations and cells were incubated for 24 h, washed, and fixed. Nuclei were stained with DAPI. Images were acquired on a confocal fluorescence microscope system LSM-800 (Carl Zeiss). Image data was analyzed by using mid-section from Z-stack images of at least 10 individual cells per sample. All data is presented as mean+SEM. Statistical significance was calculated with the ANOVA test using GraphPad Prism™ 10.

[5] = test system: Collagen-Induced Arthritis (CIA) mouse model; experiment: Collagen-induced arthritis (CIA) mouse model; format: in vivo, DBA-1 mice; conditions: 50 mg/kg dose, compared to the vehicle
Text: Female DBA-1 mice (8-9 weeks old) were used in the CIA mouse model. This model is widely used to evaluate efficacy of immunomodulatory drugs on autoimmune diseases, such as arthritis. DBA/1 mice develop collagen-induced arthritis (CIA) after immunization with bovine type II collagen emulsified in complete Freund's adjuvant (CFA), followed by a booster dose 21 days later. Both the immunizations were given subcutaneously, approximately 25 mm from the base of the tail on opposite sides. Immunizations were performed under a short duration isoflurane anesthesia. Mice were evaluated for the disease progression up to 45 days. […] Statistical significance was determined using Two-way ANOVA with multiple comparison tests to compare all groups to the vehicle.

[2H]C([2H])([2H])NC(=O)c1nc(C)c(C(=O)NC[C@@H](C)C(=O)N[C@]2([2H])C(=O)N3CCCN3Cc3ccccc32)s1 [Example 29, 4-Methyl-N2-(methyl-d3)—N^5—((R)-2-methyl-3-oxo-3-(((S)-11-oxo-2,3,10,11-tetrahydro-1H,5H-benzo[d]pyrazolo[1,2-a][1,2]diazepin-10-yl-10-d)amino)propyl)thiazole-2,5-dicarboxamide]
retention of deuterium in the process of epimerization [1]: retained | in vivo epimerization at the chiral carbon in the 7-membered ring [1]: observed in all three models | exposures and PK (other than epimerization) across species [1]: consistent

[2H][C@@]1(NC(=O)[C@H](C)CNC(=O)c2sc(C(=O)NC)nc2C)C(=O)N2CCCN2Cc2ccccc21 [Example 1, N^2,4-Dimethyl-N^5—((R)-2-methyl-3-oxo-3-(((S)-11-oxo-2,3,10,11-tetrahydro-1H,5H-benzo[d]pyrazolo[1,2-a][1,2]diazepin-10-yl-10-d)amino)propyl)thiazole-2,5-dicarboxamide]
TNFα-GFP cleavage inhibition (SPPL2a activity inhibition) (human SPPL2a [2]): SPPL2a activity inhibition; also recorded: Comparable and significant TNFα-GFP cleavage inhibition | retention of deuterium in the process of epimerization [1]: retained | in vivo epimerization at the chiral carbon in the 7-membered ring [1]: reduction of in vivo epimerization; also recorded: observed in all three models | exposures and PK (other than epimerization) across species [1]: consistent | dorsal PSI scores [3]: alleviate | ear thickness measurements [3]: alleviate | clinical signs of psoriasis disease ([3]; compared to vehicle group): significantly reduced | Mouse IL-12 level in plasma ([3]; terminal day): significant reduction | Mouse TNFα level in plasma ([3]; terminal day): significant reduction | inhibition of nuclear translocation of TNFα-GFP (human SPPL2a [4]): inhibited; also recorded: comparable and significant TNFα-GFP inhibition of nuclear translocation | clinical signs of CIA [5]: significantly reduced
